Columns and labels:
ErbB2 or EGFR = target: T1, ErbB2 or EGFR; experiment: ErbB enzyme substrate phosphorylation assay (HTRF), Method B (enzyme pre-incubated with compound 1 hour); format: biochemical; details: Table 1, enzyme Method B: enzyme mix incubated with compound 1 hour at 20° C., reaction started with substrate mix; class over ErbB2 or EGFR
T1 construct: enzymes purified from a baculovirus expression system
Procedure: Compounds of the present invention were tested for EGFR, ErbB-2, and ErbB-4 protein tyrosine kinase inhibitory activity in substrate phosphorylation assays using enzymes purified from a baculovirus expression system. Reagent production was conducted essentially as described in Brignola, P. S., et al, (2002) J. Biol. Chem. 277(2): 1576-1585.
The method measures the ability of the isolated enzyme to catalyse the transfer of the gamma-phosphate from ATP onto the tyrosine residue of a biotinylated synthetic peptide referenced “Peptide C” in Brignola, P. S., et al, (2002) J. Biol. Chem. 277(2):1576-1585. The extent of tyrosine phosphorylation was measured using an anti-phosphotyrosine antibody, and quantified by homogenous time-resolved fluorescence (HTRF).
Reactions were performed in black 384-well polystyrene flat-bottom plates in a final volume of 20 μl. Assays were performed by adding 10 μl of each of the following solutions, substrate Mix and enzyme mix: The Substrate mix contained 100 mM 3-[N-morpholino]propanesulfonic acid (MOPS) (pH 7.5), 2 mM MnCl2, 20 μM ATP, 0.01% Tween-20, 0.1 mg/mL (BSA), 0.8 uM peptide substrate, and 1 mM dithiothreitol. The enzyme mix contained 100 mM MOPS (pH7.5); 0.01% Tween-20; 0.1 mg/mL BSA, and either 0.8 nM EGFR, 10 nM ErbB2, or 1 nM ErbB4
During the course of these studies, two separate methods have been used to measure the potency of compounds. In Method A, the substrate mix was added to the compound plates first, then the reaction was started by adding the enzyme mix. In Method B, the enzyme mix was added to the compound plates and the plates were incubated at 20° C. for 1 hour. The reactions were then started by adding the substrate mix.
After initiating the reaction with either method describe above, the reactions were allowed to proceed for 90 minutes at 20° C. The reactions were then terminated by the addition of 20 μl 100 mM EDTA to each well. 40 μl/well of HTRF detection mix were added to the assay plates. The final concentrations of the detection reagents were: 100 mM HEPES (pH7.5), 0.1 mg/mL BSA, 15 nM streptavidin-labeled allophycocyanin (PerkinElmer), and 1 nM europium-labeled anti-phosphotyrosine antibody (PerkinElmer). Assay plates were left unsealed and were counted in a Wallac Multilabel Counter 1420 (PerkinElmer).
Compounds under analysis were dissolved in Me2SO to 1.0 mM and serially diluted 1 to 3 with Me2SO through twelve dilutions. 1 μl of each concentration was transferred to the corresponding well of an assay plate. This creates a final compound concentration range from 0.00027 to 47.6 μM.
The data for dose responses were plotted as % Inhibition calculated with the data reduction formula 100*(1−(U1−C2)/(C1−C2)) versus concentration of compound where U is the unknown value, C1 is the average control value obtained for 4.76% DMSO, and C2 is the average control value obtained for 0.035 M EDTA. Data were fitted with a curve described by: y=((Vmax*x)/(K+x))+Y2 where Vmax is the upper asymptote, Y2 is the Y intercept, and K is the IC50. The results for each compound were recorded as pIC50s, calculated as follows: pIC50=−Log 10(K)

[1] = tested on: BT474 and HN5 tumor cell lines; experiment: Celltiter Glo growth inhibition assay (cellular Method B); format: cell-based; details: Homo sapiens, BT-474, 72 h; Table 2, Method B Celltiter Glo, 3 days; class over BT474 and HN5;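 also: class counts the more potent of the two cell lines (BT474 or HN5)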
Procedure: (§1) Human breast tumor cells (BT474) were cultured in RPMI, (Invitrogen, 22400) containing 10% fetal bovine serum (FBS). Human head and neck tumor cells (HN5) were cultured in low glucose DMEM (Invitrogen, 12320) containing 10% FBS. Human colon tumor cells (Colo205) were cultured in DMEM (Invitrogen, 10564) containing 10% FBS. All cell lines were maintained at 37° C. in a humidified 5% CO2, 95% air incubator. Cells were harvested using trypsin/EDTA, counted using a haemocytometer, and plated in 30 microliters of the appropriate media described above, at the following densities, in a half area, black-walled, 96-well tissue culture plate (Corning 3882): BT474 3,000 cells/well, HN5 500 cells/well and Colo205 cells, 3,000 cells/well. The next day, compounds were diluted in DMEM containing 100 mg/ml gentamicin, from 10 mM stock solutions in DMSO. 30 microliters/well of these dilutions were added to the 30 microliters/well of media currently on the cell plates. Medium containing 0.6% DMSO was added to control wells. The final concentration of DMSO in all wells was 0.3%. Cells were incubated at 37° C., 5% CO2 for 3 days. Cell biomass was estimated using Celltiter Glo (Promega G7571). Briefly, plates were removed from the incubator and allowed to equilibrate to rt for 30 minutes. 60 microliters of Celltiter Glo reagent were added to each well of the treated cells and plates were shaken on an orbital plate shaker for 2 min. Plates were incubated without shaking for 30 more min and read in a luminometer with an integration time of 0.5 seconds per well. Percent inhibition of cell growth was calculated relative to vehicle treated control wells. Concentration of compound that inhibits 50% of vehicle control cell growth (IC50) was interpolated using nonlinear regression (Levenberg-Marquardt) and the equation, y=Vmax*(1−(x/(K+x)))+Y2, where “K” was equal to the IC50.

Colo205 tumor cell lines = experiment: as above; format: cell-based; details: Homo sapiens, COLO 205, 72 h, Table 3, Method B Celltiter Glo, 3 days
Procedure: as §1

O=C(Cc1ccsc1)Nc1cccc(-c2nn3ccccc3c2-c2ccnc(Nc3cccc(-c4cnco4)c3)n2)c1 [Example 17, N-{3-[3-(2-{[3-(1,3-Oxazol-5-yl)phenyl]amino}-4-pyrimidinyl)pyrazolo[1,5-a]pyridin-2-yl]phenyl}-2-(3-thienyl)acetamide]
Activity (Method) (ErbB2 or EGFR): +++ (B) (at least one pIC50 measurement of greater than 7 against either ErbB2 or EGFR)
IC50 [1]: 100 to 1000 nM
IC50 (Colo205 tumor cell lines): 100 to 1000 nM

O=C(Cc1c[nH]c2ccccc12)Nc1cccc(-c2nn3ccccc3c2-c2ccnc(Nc3cccc(-c4cnco4)c3)n2)c1 [Example 18, 2-(1H-Indol-3-yl)-N-{3-[3-(2-{[3-(1,3-oxazol-5-yl)phenyl]amino}-4-pyrimidinyl)pyrazolo[1,5-a]pyridin-2-yl]phenyl}acetamide]
Activity (Method) (ErbB2 or EGFR): ++ (B) (at least one pIC50 measurement greater than 6 against either ErbB2 or EGFR but no measurement greater than pIC50 of 7)
IC50 [1]: 100 to 1000 nM
IC50 (Colo205 tumor cell lines): > 1000 nM

Cc1cc(CC(=O)Nc2cccc(-c3nn4ccccc4c3-c3ccnc(Nc4cccc(-c5cnco5)c4)n3)c2)on1 [Example 19, 2-(3-Methyl-5-isoxazolyl)-N-{3-[3-(2-{[3-(1,3-oxazol-5-yl)phenyl]amino}-4-pyrimidinyl)pyrazolo[1,5-a]pyridin-2-yl]phenyl}acetamide]
Activity (Method) (ErbB2 or EGFR): +++ (B) (at least one pIC50 measurement of greater than 7 against either ErbB2 or EGFR)
IC50 [1]: 100 to 1000 nM
IC50 (Colo205 tumor cell lines): > 1000 nM

O=C(Cc1c(F)cccc1F)Nc1cccc(-c2nn3ccccc3c2-c2ccnc(Nc3cccc(-c4cnco4)c3)n2)c1 [Example 20, 2-(2,6-Difluorophenyl)-N-{3-[3-(2-{[3-(1,3-oxazol-5-yl)phenyl]amino}-4-pyrimidinyl)pyrazolo[1,5-a]pyridin-2-yl]-phenyl}acetamide]
Activity (Method) (ErbB2 or EGFR): +++ (B) (at least one pIC50 measurement of greater than 7 against either ErbB2 or EGFR)
IC50 [1]: 100 to 1000 nM
IC50 (Colo205 tumor cell lines): 100 to 1000 nM

O=C(Cc1cccnc1)Nc1cccc(-c2nn3ccccc3c2-c2ccnc(Nc3cccc(-c4cnco4)c3)n2)c1 [Example 21, N-{3-[3-(2-{[3-(1,3-Oxazol-5-yl)phenyl]amino}-4-pyrimidinyl)pyrazolo[1,5-a]pyridin-2-yl]phenyl}-2-(3-pyridinyl)acetamide]
Activity (Method) (ErbB2 or EGFR): +++ (B) (at least one pIC50 measurement of greater than 7 against either ErbB2 or EGFR)
IC50 [1]: 100 to 1000 nM
IC50 (Colo205 tumor cell lines): > 1000 nM

O=C(Cc1ccncc1)Nc1cccc(-c2nn3ccccc3c2-c2ccnc(Nc3cccc(-c4cnco4)c3)n2)c1 [Example 22, N-{3-[3-(2-{[3-(1,3-Oxazol-5-yl)phenyl]amino}-4-pyrimidinyl)pyrazolo[1,5-a]pyridin-2-yl]phenyl}-2-(4-pyridinyl)acetamide]
Activity (Method) (ErbB2 or EGFR): +++ (B) (at least one pIC50 measurement of greater than 7 against either ErbB2 or EGFR)
IC50 [1]: > 1000 nM
IC50 (Colo205 tumor cell lines): > 1000 nM

O=C(Cc1ccccn1)Nc1cccc(-c2nn3ccccc3c2-c2ccnc(Nc3cccc(-c4cnco4)c3)n2)c1 [Example 23, N-{3-[3-(2-{[3-(1,3-Oxazol-5-yl)phenyl]amino}-4-pyrimidinyl)pyrazolo[1,5-a]pyridin-2-yl]phenyl}-2-(2-pyridinyl)acetamide]
Activity (Method) (ErbB2 or EGFR): +++ (B) (at least one pIC50 measurement of greater than 7 against either ErbB2 or EGFR)
IC50 [1]: 100 to 1000 nM
IC50 (Colo205 tumor cell lines): 100 to 1000 nM

CN1CCc2ccc(Nc3nccc(-c4c(-c5cccc(NC(=O)Cc6cccs6)c5)nn5cccc(F)c45)n3)cc2C1 [Example 30, N-[3-(4-fluoro-3-{2-[(2-methyl-1,2,3,4-tetrahydro-7-isoquinolinyl)amino]-4-pyrimidinyl}pyrazolo[1,5-a]pyridin-2-yl)phenyl]-2-(2-thienyl)acetamide]
Activity (Method) (ErbB2 or EGFR): ++ (B) (at least one pIC50 measurement greater than 6 against either ErbB2 or EGFR but no measurement greater than pIC50 of 7)
IC50 [1]: > 1000 nM
IC50 (Colo205 tumor cell lines): > 1000 nM

CN(C)CCOc1cccc(Nc2nccc(-c3c(-c4cccc(NC(=O)Cc5cccs5)c4)nn4cccc(F)c34)n2)c1 [Example 31, N-[3-(3-{2-[(3-{[2-(dimethylamino)ethyl]oxy}phenyl)amino]-4-pyrimidinyl}-4-fluoropyrazolo[1,5-a]pyridin-2-yl)phenyl]-2-(2-thienyl)acetamide]
Activity (Method) (ErbB2 or EGFR): ++ (B) (at least one pIC50 measurement greater than 6 against either ErbB2 or EGFR but no measurement greater than pIC50 of 7)
IC50 [1]: > 1000 nM
IC50 (Colo205 tumor cell lines): > 1000 nM

O=C(Cc1cccs1)Nc1cccc(-c2nn3cccc(F)c3c2-c2ccnc(Nc3cccc(F)c3)n2)c1 [Example 32, N-[3-(4-fluoro-3-{2-[(3-fluorophenyl)amino]-4-pyrimidinyl}pyrazolo[1,5-a]pyridin-2-yl)phenyl]-2-(2-thienyl)acetamide]
Activity (Method) (ErbB2 or EGFR): + (B) (no pIC50 measurement greater than 6 against either ErbB2 or EGFR)
IC50 [1]: > 1000 nM
IC50 (Colo205 tumor cell lines): > 1000 nM

O=C(Cc1cccs1)Nc1cccc(-c2nn3cc(F)ccc3c2-c2ccnc(Nc3cccc(F)c3)n2)c1 [Example 33, N-[3-(6-fluoro-3-{2-[(3-fluorophenyl)amino]-4-pyrimidinyl}pyrazolo[1,5-a]pyridin-2-yl)phenyl]-2-(2-thienyl)acetamide]
Activity (Method) (ErbB2 or EGFR): ++ (B) (at least one pIC50 measurement greater than 6 against either ErbB2 or EGFR but no measurement greater than pIC50 of 7)
IC50 [1]: > 1000 nM
IC50 (Colo205 tumor cell lines): > 1000 nM

CN(C)CCOc1cccc(Nc2nccc(-c3c(-c4cccc(NC(=O)Cc5cccs5)c4)nn4cc(F)ccc34)n2)c1 [Example 34, N-[3-(3-{2-[(3-{[2-(dimethylamino)ethyl]oxy}phenyl)amino]-4-pyrimidinyl}-6-fluoropyrazolo[1,5-a]pyridin-2-yl)phenyl]-2-(2-thienyl)acetamide]
Activity (Method) (ErbB2 or EGFR): +++ (B) (at least one pIC50 measurement of greater than 7 against either ErbB2 or EGFR)
IC50 [1]: 100 to 1000 nM
IC50 (Colo205 tumor cell lines): 100 to 1000 nM

CN1CCc2ccc(Nc3nccc(-c4c(-c5cccc(NC(=O)Cc6cccs6)c5)nn5cc(F)ccc45)n3)cc2C1 [Example 35, N-[3-(6-fluoro-3-{2-[(2-methyl-1,2,3,4-tetrahydro-7-isoquinolinyl)amino]-4-pyrimidinyl}pyrazolo[1,5-a]pyridin-2-yl)phenyl]-2-(2-thienyl)acetamide]
Activity (Method) (ErbB2 or EGFR): ++ (B) (at least one pIC50 measurement greater than 6 against either ErbB2 or EGFR but no measurement greater than pIC50 of 7)
IC50 [1]: 100 to 1000 nM
IC50 (Colo205 tumor cell lines): > 1000 nM

Reference: patent publication US7807673B2, “2-pyrimidinyl pyrazolopyridine ErbB kinase inhibitors” (GlaxoSmithKline LLC, priority 2005, dated 2010)
